According to patent US8455658B2, “Thiazole and thiadiazole compounds for inflammation and immune-related uses” (Synta Pharmaceuticals Corp., priority 2006, dated 2013):

Test system: IL-2 production
Test: Inhibition of IL-2 production in PHA-activated Jurkat cells (ELISA)
Type: cell-based
Details: Homo sapiens, Jurkat, 20 h, PHA 2.5 μg/mL, IL-2 ELISA
Procedure: Jurkat cells were placed in a 96 well plate (0.5 million cells per well in 1% FBS medium) then a test compound of this invention was added at different concentrations. After 10 minutes, the cells were activated with PHA (final concentration 2.5 μg/mL) and incubated for 20 hours at 37° C. under CO2. The final volume was 200 μL. Following incubation, the cells were centrifuged and the supernatants collected and stored at −70° C. prior to assaying for IL-2 production. A commercial ELISA kit (IL-2 Eli-pair, Diaclone Research, Besancon, France) was used to detect production of IL-2, from which dose response curves were obtained.

**Q.** Which IC50 does the source give for Cn1cncc1-c1nc(NC(=O)c2c(F)cccc2F)sc1-c1cccc(C(F)(F)F)c1 [Compound 80, 2,6-Difluoro-N-(4-(1-methyl-1H-imidazol-5-yl)-5-(3-(trifluoromethyl)phenyl)thiazol-2-yl)benzamide] here?
**A.** Its IC50 is > 1000 nM.

**Q.** How did the IC50 turn out when Cc1nc(C)c(-c2nc(NC(=O)c3c(F)cccc3F)sc2-c2cccc(C(F)(F)F)c2)o1 [Compound 81, N-(4-(2,4-dimethyloxazol-5-yl)-5-(3-(trifluoromethyl)phenyl)thiazol-2-yl)-2,6-difluorobenzamide] was run?
**A.** Its IC50 is > 1000 nM.

**Q.** For O=C(Nc1nc(C(O)c2ccccn2)c(-c2cccc(C(F)(F)F)c2)s1)c1c(F)cccc1F (centres unmarked) [Compound 83, 2,6-difluoro-N-(4-(hydroxy(pyridin-2-yl)methyl)-5-(3-(trifluoromethyl)phenyl)thiazol-2-yl)benzamide], which IC50 is on record?
**A.** Its IC50 is > 1000 nM.

**Q.** How did the IC50 turn out when CC(=O)c1nc(NC(=O)c2c(F)cccc2F)sc1-c1cccc(C(F)(F)F)c1 [Compound 84, N-(4-Acetyl-5-(3-(trifluoromethyl)phenyl)thiazol-2-yl)-2,6-difluorobenzamide] was run?
**A.** The IC50 was 200 to 500 nM.

**Q.** For Cc1nc(-c2nc(NC(=O)c3c(F)cccc3F)sc2-c2cccc(C(F)(F)F)c2)cs1 [Compound 86, 2,6-Difluoro-N-(2′-methyl-5-(3-(trifluoromethyl)phenyl)-4,4′-bithiazol-2-yl)benzamide], which IC50 is on record?
**A.** Its IC50 is 200 to 500 nM.

**Q.** Which IC50 does the source give for Nc1nc(-c2nc(NC(=O)c3c(F)cccc3F)sc2-c2cccc(C(F)(F)F)c2)cs1 [Compound 87, N-(2′-amino-5-(3-(trifluoromethyl)phenyl)-4,4′-bithiazol-2-yl)-2,6-difluorobenzamide] here?
**A.** Its IC50 is > 1000 nM.

**Q.** O=C(Nc1nc(C2=NCCO2)c(-c2cccc(C(F)(F)F)c2)s1)c1c(F)cccc1F [Compound 89, N-(4-(4,5-dihydrooxazol-2-yl)-5-(3-(trifluoromethyl)phenyl)thiazol-2-yl)-2,6-difluorobenzamide] was tested. Which IC50 did it give?
**A.** The IC50 was 200 to 500 nM.

**Q.** How did the IC50 turn out when O=C(Nc1nc(-c2nnco2)c(-c2cccc(C(F)(F)F)c2)s1)c1c(F)cccc1F [Compound 90, N-(4-(1,3,4-oxadiazol-2-yl)-5-(3-(trifluoromethyl)phenyl)thiazol-2-yl)-2,6-difluorobenzamide] was run?
**A.** The IC50 was 200 to 500 nM.

**Q.** For O=C(Nc1nc(-c2ncco2)c(-c2cccc(C(F)(F)F)c2)s1)c1c(F)cccc1F [Compound 91, 2,6-difluoro-N-(4-(oxazol-2-yl)-5-(3-(trifluoromethyl)phenyl)thiazol-2-yl)benzamide], which IC50 is on record?
**A.** The IC50 was 50 to 100 nM.

**Q.** Cc1noc(-c2nc(NC(=O)c3c(F)cccc3F)sc2-c2cccc(C(F)(F)F)c2)n1 [Compound 92, 2,6-difluoro-N-(4-(3-methyl-1,2,4-oxadiazol-5-yl)-5-(3-(trifluoromethyl)phenyl)thiazol-2-yl)benzamide] was tested. Which IC50 did it give?
**A.** Its IC50 is 200 to 500 nM.

**Q.** Which IC50 does the source give for CON(C)C(=O)c1nc(NC(=O)c2c(F)cccc2F)sc1-c1cccc(C(F)(F)F)c1 [Compound 93, 2-(2,6-difluorobenzamido)-N-methoxy-N-methyl-5-(3-(trifluoromethyl)phenyl)thiazole-4-carboxamide] here?
**A.** Its IC50 is > 1000 nM.

**Q.** For CCC(=O)c1nc(NC(=O)c2c(F)cccc2F)sc1-c1cccc(C(F)(F)F)c1 [Compound 94, 2,6-difluoro-N-(4-propionyl-5-(3-(trifluoromethyl)phenyl)thiazol-2-yl)benzamide], which IC50 is on record?
**A.** Its IC50 is 50 to 100 nM.

**Q.** Which IC50 does the source give for Cc1nc(-c2nc(NC(=O)c3c(F)cccc3F)sc2-c2cccc(C(F)(F)F)c2)c(C)s1 [Compound 95, N-(2′,5′-dimethyl-5-(3-(trifluoromethyl)phenyl)-4,4′-bithiazol-2-yl)-2,6-difluorobenzamide] here?
**A.** Its IC50 is > 1000 nM.

**Q.** CCOC(=O)c1nc(-c2nc(NC(=O)c3c(F)cccc3F)sc2-c2cccc(C(F)(F)F)c2)c(C)s1 [Compound 96, Ethyl 2′-(2,6-difluorobenzamido)-5-methyl-5′-(3-(trifluoromethyl)phenyl)-4,4′-bithiazole-2-carboxylate] was tested. Which IC50 did it give?
**A.** Its IC50 is > 1000 nM.

**Q.** NC(=O)c1nc(NC(=O)c2c(F)cccc2F)sc1-c1cccc(C(F)(F)F)c1 [Compound 97, 2-(2,6-Difluorobenzamido)-5-(3-(trifluoromethyl)phenyl)thiazole-4-carboxamide] was tested. Which IC50 did it give?
**A.** Its IC50 is > 1000 nM.

**Q.** Which IC50 does the source give for CCOC(CNC(=O)c1nc(NC(=O)c2c(F)cccc2F)sc1-c1cccc(C(F)(F)F)c1)OCC [Compound 98, N-(2,2-diethoxyethyl)-2-(2,6-difluorobenzamido)-5-(3-(trifluoromethyl)phenyl)thiazole-4-carboxamide] here?
**A.** The IC50 was > 1000 nM.

**Q.** How did the IC50 turn out when O=C(Nc1nc(-c2cc[nH]n2)c(-c2cccc(C(F)(F)F)c2)s1)c1c(F)cccc1F [Compound 100, N-(4-(1H-Pyrazol-3-yl)-5-(3-(trifluoromethyl)phenyl)thiazol-2-yl)-2,6-difluorobenzamide] was run?
**A.** The IC50 was 200 to 500 nM.

**Q.** How did the IC50 turn out when O=C(Nc1nc(Cl)c(-c2cccc(C(F)(F)F)c2)s1)c1c(F)cccc1F [Compound 103, N-(4-Chloro-5-(3-(trifluoromethyl)phenyl)thiazol-2-yl)-2,6-difluorobenzamide] was run?
**A.** Its IC50 is 200 to 500 nM.

**Q.** O=C(Nc1nc(-c2ccon2)c(-c2cccc(C(F)(F)F)c2)s1)c1c(F)cccc1F [Compound 106, 2,6-Difluoro-N-(4-(isoxazol-3-yl)-5-(3-(trifluoromethyl)phenyl)thiazol-2-yl)benzamide] was tested. Which IC50 did it give?
**A.** The IC50 was 100 to 200 nM.

**Q.** How did the IC50 turn out when O=C(Nc1nc(-c2ccccn2)c(-c2cccc(C(F)(F)F)c2)s1)c1c(F)cccc1F [Compound 107, 2,6-Difluoro-N-(4-(pyridin-2-yl)-5-(3-(trifluoromethyl)phenyl)thiazol-2-yl)benzamide] was run?
**A.** Its IC50 is < 30 nM.

**Q.** With COc1ccc(-c2nc(NC(=O)c3c(F)cccc3F)sc2-c2cccc(C(F)(F)F)c2)cc1OC [Compound 109, N-(4-(3,4-Dimethoxyphenyl)-5-(3-(trifluoromethyl)phenyl)thiazol-2-yl)-2,6-difluorobenzamide] as the molecule, how does the IC50 read?
**A.** The IC50 was > 1000 nM.

**Q.** For CN(C)c1ccc(-c2nc(NC(=O)c3c(F)cccc3F)sc2-c2cccc(C(F)(F)F)c2)cc1 [Compound 110, N-(4-(4-(Dimethylamino)phenyl)-5-(3-(trifluoromethyl)phenyl)thiazol-2-yl)-2,6-difluorobenzamide], which IC50 is on record?
**A.** The IC50 was > 1000 nM.

**Q.** With Cc1cnccc1C(=O)Nc1nc(C(=O)O)c(-c2cccc(C(F)(F)F)c2)s1 [Compound 112, 2-(3-Methylisonicotinamido)-5-(3-(trifluoromethyl)phenyl)thiazole-4-carboxylic acid] as the molecule, how does the IC50 read?
**A.** Its IC50 is > 1000 nM.

**Q.** Which IC50 does the source give for COC(=O)c1cccc(-c2sc(NC(=O)c3c(F)cccc3F)nc2C(=O)OC)c1 [Compound 114, Methyl 2-(2,6-difluorobenzamido)-5-(3-(methoxycarbonyl)phenyl)thiazole-4-carboxylate] here?
**A.** Its IC50 is > 1000 nM.

**Q.** With CCOC(=O)c1nc(-c2sc(NC(=O)c3c(F)cccc3F)nc2C)cs1 [Compound 114a, Ethyl 2′-(2,6-difluorobenzamido)-4′-methyl-4,5′-bithiazole-2-carboxylate] as the molecule, how does the IC50 read?
**A.** The IC50 was > 1000 nM.

**Q.** How did the IC50 turn out when Cc1nc(-c2sc(NC(=O)c3c(F)cccc3F)nc2C)cs1 [Compound 114b, N-(2,4′-Dimethyl-4,5′-bithiazol-2′-yl)-2,6-difluorobenzamide] was run?
**A.** Its IC50 is > 1000 nM.

**Q.** For Cc1nc(C(=O)Nc2c(F)cccc2F)sc1-c1cccc(-c2ncco2)c1 [Compound 116, N-(2,6-difluorophenyl)-4-methyl-5-(3-(oxazol-2-yl)phenyl)thiazole-2-carboxamide], which IC50 is on record?
**A.** Its IC50 is 50 to 100 nM.

**Q.** For COC(=O)c1cccc(-c2sc(C(=O)Nc3c(F)cccc3F)nc2C)c1 [Compound 117, methyl 3-(2-(2,6-difluorophenylcarbamoyl)-4-methylthiazol-5-yl)benzoate], which IC50 is on record?
**A.** Its IC50 is 100 to 200 nM.

**Q.** With Cc1nc(C(=O)Nc2c(F)cccc2F)sc1-c1cccc(-c2nnco2)c1 [Compound 118, 5-(3-(1,3,4-oxadiazol-2-yl)phenyl)-N-(2,6-difluorophenyl)-4-methylthiazole-2-carboxamide] as the molecule, how does the IC50 read?
**A.** Its IC50 is 200 to 500 nM.

**Q.** For Cc1nc(C(=O)Nc2c(F)cccc2F)sc1-c1cc(C(F)(F)F)ccc1Cl [Compound 119, 5-(2-chloro-5-(trifluoromethyl)phenyl)-N-(2,6-difluorophenyl)-4-methylthiazole-2-carboxamide], which IC50 is on record?
**A.** Its IC50 is 200 to 500 nM.

**Q.** How did the IC50 turn out when Cc1cnccc1NC(=O)c1nc(C)c(-c2cccc(C(F)(F)F)c2)s1 [Compound 120, 4-methyl-N-(3-methylpyridin-4-yl)-5-(3-(trifluoromethyl)phenyl)thiazole-2-carboxamide] was run?
**A.** Its IC50 is > 1000 nM.

**Q.** For Cc1ccc(-c2ncco2)cc1-c1ncc(C(=O)Nc2c(F)cccc2F)s1 [Compound 121, N-(2,6-difluorophenyl)-2-(2-methyl-5-(oxazol-2-yl)phenyl)thiazole-5-carboxamide], which IC50 is on record?
**A.** The IC50 was 100 to 200 nM.

**Q.** For Cc1ccc(-c2nccs2)cc1-c1ncc(C(=O)Nc2c(F)cccc2F)s1 [Compound 122, N-(2,6-difluorophenyl)-2-(2-methyl-5-(thiazol-2-yl)phenyl)thiazole-5-carboxamide], which IC50 is on record?
**A.** The IC50 was 30 to 50 nM.

**Q.** How did the IC50 turn out when O=C(Nc1c(F)cccc1F)c1cnc(-c2cccc(C(F)(F)F)c2)s1 [Compound 123, N-(2,6-difluorophenyl)-2-(3-(trifluoromethyl)phenyl)thiazole-5-carboxamide] was run?
**A.** Its IC50 is > 1000 nM.

**Q.** For O=C(Nc1c(F)cccc1F)c1cnc(-c2cccc(-c3ncco3)c2)s1 [Compound 124, N-(2,6-difluorophenyl)-2-(3-(oxazol-2-yl)phenyl)thiazole-5-carboxamide], which IC50 is on record?
**A.** The IC50 was > 1000 nM.

**Q.** Which IC50 does the source give for O=C(Nc1c(F)cccc1F)c1cnc(-c2cc(-c3nccs3)ccc2Cl)s1 [Compound 125, 2-(2-chloro-5-(thiazol-2-yl)phenyl)-N-(2,6-difluorophenyl)thiazole-5-carboxamide] here?
**A.** Its IC50 is 200 to 500 nM.

**Q.** How did the IC50 turn out when COc1ncc(Cl)cc1-c1ncc(C(=O)Nc2c(F)cccc2F)s1 [Compound 126, 2-(5-chloro-2-methoxypyridin-3-yl)-N-(2,6-difluorophenyl)thiazole-5-carboxamide] was run?
**A.** The IC50 was > 1000 nM.

**Q.** For Cc1ccc(-c2nnco2)cc1-c1ncc(C(=O)Nc2c(F)cccc2F)s1 [Compound 128, N-(2,6-difluorophenyl)-2-(2-methyl-5-(1,3,4-oxadiazol-2-yl)phenyl)thiazole-5-carboxamide], which IC50 is on record?
**A.** Its IC50 is 200 to 500 nM.
